Results as given in patent US10952992B2, “Methods of treating intraocular pressure with activators of Tie-2” (Aerpio Pharmaceuticals, Inc., priority 2015, dated 2021).
Where “and” joins values, the source holds several entries; their conditions need not be identical. Equal values may be shown once. Where a name gives a salt, the structure may show the parent alone. Values belong to the compound of their own block, whether it stands above or below them.

Tests used:
[1] = Example 2 vitreous humor concentrations; format: in vivo, male New Zealand White rabbits
Method: To measure the concentration of Compound 1 in plasma and ocular tissues following topical ocular, subcutaneous, and intravitreal administration, New Zealand White rabbits were administered Compound 1, and plasma and ocular samples were collected at pre-determined time points. Compound 1 formulations were prepared fresh on each day of dosing.
Ocular tissue samples from both eyes of each animal were collected and weights were recorded. Plasma and ocular tissue sample concentrations of Compound 1 were determined by LC-MS/MS.
Animals were anesthetized for ocular (topical) and intravitreal dosing following the 12IA7 IACUC protocol. Each rabbit received a bolus dose of test formulation either via topical ocular administration 3 times daily on Days 1 and 2 (at 0, 6, and 12 hours), and once on Day 3 (at 0 hours) into both eyes; via intravitreal administration into both eyes once on Day 1 (at 0 hours); or via subcutaneous administration 2 times daily on Days 1 and 2 (at 0 and 8 hours) and once daily on Day 3 (at 0 hours). Doses were given within an approximately 1 hour window each day where applicable.
On Day 1, for intravitreal administration, or on Day 3, for topical ocular and subcutaneous administration, at the appropriate ocular tissue collection time points, animals were euthanized and both eyes were enucleated immediately. Following enucleation, each eye was rinsed with phosphate-buffered saline. Ocular tissue samples from both eyes of each animal were collected at predetermined time points and weights were recorded. All the samples were frozen immediately on dry ice, and stored at −60° C. to −80° C. pending bioanalysis.
An LC-MS/MS method was developed for the determination of Compound 1 in rabbit aqueous tissues (plasma, aqueous and vitreous humor) and solid ocular tissue samples. A pre-study standard curve was analyzed to determine the specificity, range, and lower limit of quantitation of the method. Plasma and tissue homogenate study samples were extracted and analyzed. All the samples were treated identically to the standards.
One eight-point standard curve was used in each analytical batch. To be accepted, each batch must have had at least five of eight standards with accuracy within ±20% of nominal, except at the lower limit of quantification (LLOQ), where ±25% was acceptable.

[2] = test system: intraocular pressure in normotensive New Zealand White rabbits; assay: Example 3 intraocular pressure after repeated topical and subcutaneous administration (pneumotonometer); format: in vivo
Method: To measure the tolerability and effect of Compound 1 (sodium salt) on intraocular pressure following repeated topical and subcutaneous administration, normotensive New Zealand White rabbits were treated with Compound 1 (sodium salt). Animals were acclimated 1 to 2 times per day to the intraocular pressure (IOP) measurement procedures prior to initiation of the study to determine baseline IOP levels. IOP acclimation was performed in the two weeks prior to study start for a total of 5 days. Animals with unacceptable IOP values were excluded from the study. Prior to taking all IOP measurements, 1 to 2 drops of a 0.5% proparacaine solution were applied to the eye as a topical anesthetic. OP measurements were performed with a pneumotonometer. Test and control formulations were administered to the animals once or twice daily topically into both eyes or subcutaneously starting on Day 1 according to TABLE 20 and TABLE 21 below. PM dosing, where applicable, was performed ˜8 hours after AM dosing. IOP measurements were performed twice (AM and PM) at baseline (prior to the start of dosing), twice (AM and PM) on Days 1 and 7, and once daily (AM) on Days 2-6 and Day 8. Prior to taking all IOP measurements, 1 to 2 drops of a 0.5% proparacaine solution were applied to the eye as a topical anesthetic. IOP measurements were performed with a pneumotonometer. AM IOP measurements were performed 2 hours after AM dosing; the only exceptions were Day 8 AM measurements, which were performed 24 hours after the final dose. PM IOP measurements were performed ˜5 hours (baseline and Day 1) or ˜4 hours (Day 7) after AM IOP measurements, prior to PM dosing, with at least 15 minutes elapsing between anesthetic application for PM IOP measurements and PM dosing. The final round of slit-lamp examinations was performed on Day 8.

[3] = Group 3 (subcutaneous 5 mg/kg/dose, suspension), 0.5 hr
[4] = Group 3 (subcutaneous 5 mg/kg/dose, suspension), 2.0 hr, BLOQ = below 0.2 ng/mL
[5] = Group 5 (intravitreal 2.5 mg/eye, suspension), 6.0 hr
[6] = Group 5 (intravitreal 2.5 mg/eye, suspension), 24 hr
[7] = Group 5 (intravitreal 2.5 mg/eye, suspension), 48 hr
[8] = Group 1 (topical ocular 1.2 mg/eye), 0.5 hr
[9] = Group 1 (topical ocular 1.2 mg/eye), 1.0 hr
[10] = Group 1 (topical ocular 1.2 mg/eye), 2.0 hr
[11] = Group 1 (topical ocular 1.2 mg/eye), 4.0 hr
[12] = Group 2 (subcutaneous 5 mg/kg/dose, solution), 0.5 hr
[13] = Group 2 (subcutaneous 5 mg/kg/dose, solution), 1.0 hr
[14] = Group 2 (subcutaneous 5 mg/kg/dose, solution), 2.0 hr, BLOQ = below 0.2 ng/mL
[15] = Group 2 (subcutaneous 5 mg/kg/dose, solution), 4.0 hr, BLOQ = below 0.2 ng/mL
[16] = Group 4 (intravitreal 2.5 mg/eye, solution), 6.0 hr
[17] = Group 4 (intravitreal 2.5 mg/eye, solution), 24 hr
[18] = Group 4 (intravitreal 2.5 mg/eye, solution), 48 hr
[19] = Group 4 (intravitreal 2.5 mg/eye, solution), 72 hr

- vitreous humor Average Conc. [1, 3]: 0.40 ng/g
- vitreous humor Conc. OS [1, 3]: 0.227 ng/mL
- vitreous humor Average Conc. ([1]; Group 3 (subcutaneous 5 mg/kg/dose, suspension), 1.0 hr): 0.41 ng/g
- vitreous humor Conc. OS ([1]; Group 3 (subcutaneous 5 mg/kg/dose, suspension), 1.0 hr, BLOQ = below 0.2 ng/mL): BLOQ
- vitreous humor Conc. OD [1, 4]: BLOQ
- vitreous humor Conc. OS [1, 4]: BLOQ
- vitreous humor Average Conc. ([1]; Group 3 (subcutaneous 5 mg/kg/dose, suspension), 4.0 hr): 0.41 ng/g
- vitreous humor Conc. OD ([1]; Group 3 (subcutaneous 5 mg/kg/dose, suspension), 4.0 hr, BLOQ = below 0.2 ng/mL): BLOQ
- Average Peak Concentration, Vitreous Humor ([1]; Group 3: subcutaneous 5 mg/kg/dose, suspension): 0.40 ng/g
- vitreous humor Average Conc. [1, 5]: 479750 ng/g
- vitreous humor Conc. OD [1, 5]: 592000 ng/mL and 432000 ng/mL
- vitreous humor Average Conc. [1, 6]: 408750 ng/g
- vitreous humor Conc. OD [1, 6]: 296000 ng/mL and 491000 ng/mL
- vitreous humor Conc. OS [1, 6]: 528000 ng/mL and 320000 ng/mL
- vitreous humor Average Conc. [1, 7]: 97800 ng/g
- vitreous humor Conc. OD [1, 7]: 75900 ng/mL and 68300 ng/mL
- vitreous humor Conc. OS [1, 7]: 148000 ng/mL and 99000 ng/mL
- vitreous humor Average Conc. ([1]; Group 5 (intravitreal 2.5 mg/eye, suspension), 72 hr): 65350 ng/g
- Average Peak Concentration, Vitreous Humor ([1]; Group 5: intravitreal 1.54 mg/kg/dose, suspension): 479750 ng/g
Structure (SMILES): COC(=O)N[C@@H](Cc1ccccc1)C(=O)N[C@@H](Cc1ccc(NS(=O)(=O)O)cc1)c1csc(-c2cccs2)n1 [Compound 1 free acid]

- vitreous humor Average Conc. [1, 8]: 0.61 ng/g
- vitreous humor Conc. OD [1, 8]: 0.549 ng/mL
- vitreous humor Conc. OS [1, 8]: 0.528 ng/mL and 0.507 ng/mL
- vitreous humor Average Conc. [1, 9]: 2.09 ng/g
- vitreous humor Conc. OD [1, 9]: 1.97 ng/mL and 3.28 ng/mL
- vitreous humor Average Conc. [1, 10]: 3.33 ng/g
- vitreous humor Conc. OD [1, 10]: 1.14 ng/mL
- vitreous humor Conc. OS [1, 10]: 0.950 ng/mL
- vitreous humor Average Conc. [1, 11]: 4.01 ng/g
- vitreous humor Conc. OD [1, 11]: 1.09 ng/mL and 0.551 ng/mL
- vitreous humor Conc. OS [1, 11]: 2.20 ng/mL
- Average Peak Concentration, Vitreous Humor ([1]; Group 1: topical ocular 0.70 mg/kg/dose, solution): 0.61 ng/g
- vitreous humor Average Conc. [1, 12]: 0.83 ng/g
- vitreous humor Conc. OD [1, 12]: 0.77 ng/mL and 0.537 ng/mL
- vitreous humor Conc. OS [1, 12]: 1.03 ng/mL and 0.981 ng/mL
- vitreous humor Average Conc. [1, 13]: 0.45 ng/g
- vitreous humor Conc. OD [1, 13]: 0.252 ng/mL and 0.442 ng/mL
- vitreous humor Conc. OD [1, 14]: BLOQ
- vitreous humor Conc. OS [1, 14]: BLOQ
- vitreous humor Conc. OD [1, 15]: BLOQ
- vitreous humor Conc. OS [1, 15]: BLOQ
- Average Peak Concentration, Vitreous Humor ([1]; Group 2: subcutaneous 5 mg/kg/dose, solution): 0.83 ng/g
- vitreous humor Average Conc. [1, 16]: 988500 ng/g
- vitreous humor Conc. OD [1, 16]: 1450000 ng/mL and 1480000 ng/mL
- vitreous humor Conc. OS [1, 16]: 592000 ng/mL and 432000 ng/mL
- vitreous humor Average Conc. [1, 17]: 349500 ng/g
- vitreous humor Conc. OD [1, 17]: 438000 ng/mL and 406000 ng/mL
- vitreous humor Conc. OS [1, 17]: 295000 ng/mL and 259000 ng/mL
- vitreous humor Average Conc. [1, 18]: 82000 ng/g
- vitreous humor Conc. OD [1, 18]: 85200 ng/mL and 68600 ng/mL
- vitreous humor Conc. OS [1, 18]: 82300 ng/mL and 91900 ng/mL
- vitreous humor Average Conc. [1, 19]: 13450 ng/g
- vitreous humor Conc. OD [1, 19]: 14500 ng/mL and 11700 ng/mL
- vitreous humor Conc. OS [1, 19]: 13500 ng/mL and 14100 ng/mL
- Average Peak Concentration, Vitreous Humor ([1]; Group 4: intravitreal 1.55 mg/kg/dose, solution): 988500 ng/g
- vitreous humor concentrations vs free acid (FIG. 11) ([1]; intravitreal administration, 6 hr post-dosing): higher vitreous humor concentrations
- vitreous humor concentrations vs free acid (FIG. 10) ([1]; subcutaneous administration, 0.5 hr and 1 hr post-dosing): increased vitreous humor concentrations
- vitreous humor concentrations over time (FIG. 9) ([1]; topical ocular administration): increased vitreous humor concentrations
Structure (SMILES): COC(=O)N[C@@H](Cc1ccccc1)C(=O)N[C@@H](Cc1ccc(NS(=O)(=O)O)cc1)c1csc(-c2cccs2)n1 [Compound 1 sodium salt]
- reduction in IOP values compared to vehicle control ([2]; 10 mg/kg subcutaneous): slightly more consistent
- lower IOP values compared to Group 1 (Vehicle) ([2]; Group 2: 0.45 mg/eye topical BID, over the course of dosing): not
- IOP values compared to Group 1 (Vehicle) ([2]; Group 3: 1.2 mg/eye topical BID, over the course of dosing): lower IOP values
- IOP values compared to Group 1 (Vehicle) ([2]; Group 4: 1.2 mg/eye topical QD, over the course of dosing): lower IOP values
- IOP values compared to Group 1 (Vehicle) ([2]; Group 5: 10 mg/kg subcutaneous BID, early part of the study, difference decreased towards the end): Lower IOP values
- apparent reduction in intraocular pressure values ([2]; Groups 3 and 4 (1.2 mg/eye topical BID, QD), Day 7 and Day 8 (24 hours after the end of dosing)): persisted
- effect on intraocular pressure ([2]; topical 1.2 mg/eye, QD or BID): reduce intraocular pressure
